Assay results taken from ChEMBL document CHEMBL4342421, “Current scenario of tetrazole hybrids for antibacterial activity” (Eur J Med Chem, 2019).
≈ marks a conversion by molar mass, not a printed value.

Tests used:
Format in all cases: functional
[1] = test system: Pseudomonas aeruginosa; assay: Antimicrobial activity against Pseudomonas aeruginosa
[2] = test system: Bacillus subtilis; assay: Antimicrobial activity against Bacillus subtilis
[3] = test system: Escherichia coli; assay: Antimicrobial activity against Escherichia coli
[4] = test system: Staphylococcus aureus; assay: Antimicrobial activity against Staphylococcus aureus
[5] = test system: Aspergillus niger; assay: Antifungal activity against Aspergillus niger
[6] = test system: Candida albicans; assay: Antifungal activity against Candida albicans

Compound	MIC [1] [µg/mL]	MIC [2] [µg/mL]	MIC [3] [µg/mL]	MIC [4] [µg/mL]	MIC [5] [µg/mL]	MIC [6] [µg/mL]
O=c1c(OCc2nnn[nH]2)c(-c2ccc(F)cc2)oc2cc(Cl)ccc12	50 to 400 (≈ 134 to 1070 µM)	50 to 400 (≈ 134 to 1070 µM)	50 to 400 (≈ 134 to 1070 µM)	50 to 400 (≈ 134 to 1070 µM)	–	–
O=C1S/C(=C\c2ccccc2Cl)C(=O)N1Cc1ccc(-c2ccccc2-c2nnn[nH]2)cc1	–	7.75 to 35.4 (≈ 16.4 to 74.7 µM)	7.75 to 35.4 (≈ 16.4 to 74.7 µM)	–	–	–
Cc1ccc2c(c1)cc(C1CC(c3ccccc3)=NN1C(N)=S)c1nnnn12 (stereo unspecified)	3.12 to 100 (≈ 8.07 to 258 µM)	–	3.12 to 100 (≈ 8.07 to 258 µM)	3.12 to 100 (≈ 8.07 to 258 µM)	3.12 to 100 (≈ 8.07 to 258 µM)	3.12 to 100 (≈ 8.07 to 258 µM)
O=C1S/C(=C\c2ccc(F)cc2)C(=O)N1Cc1ccc(-c2ccccc2-c2nnn[nH]2)cc1	–	7.75 to 35.4 (≈ 16.9 to 77.4 µM)	7.75 to 35.4 (≈ 16.9 to 77.4 µM)	–	–	–
CC(C)(C)Nc1c(-c2cc3ccccc3n3nnnc23)nc2sccn12	> 320	–	> 320	> 320	–	–
Cc1ccc2cc(C3CC(c4ccc(Cl)cc4)=NN3C(N)=S)c3nnnn3c2c1 (stereo unspecified)	3.12 to 100 (≈ 7.41 to 237 µM)	–	3.12 to 100 (≈ 7.41 to 237 µM)	3.12 to 100 (≈ 7.41 to 237 µM)	3.12 to 100 (≈ 7.41 to 237 µM)	3.12 to 100 (≈ 7.41 to 237 µM)
COc1cc(/C=C2\SC(=O)N(Cc3ccc(-c4ccccc4-c4nnn[nH]4)cc3)C2=O)cc(OC)c1OC	–	7.75 to 35.4 (≈ 14.6 to 66.9 µM)	7.75 to 35.4 (≈ 14.6 to 66.9 µM)	–	–	–
COc1ccc(C(=O)/C=C/c2cc3ccc(C)cc3n3nnnc23)cc1	6.25 to 100 (≈ 18.1 to 290 µM)	–	6.25 to 100 (≈ 18.1 to 290 µM)	6.25 to 100 (≈ 18.1 to 290 µM)	6.25 to 100 (≈ 18.1 to 290 µM)	6.25 to 100 (≈ 18.1 to 290 µM)
Cc1ccc2cc(C3CC(c4ccccn4)=NN3C(N)=S)c3nnnn3c2c1 (stereo unspecified)	3.12 to 100 (≈ 8.04 to 257 µM)	–	3.12 to 100 (≈ 8.04 to 257 µM)	3.12 to 100 (≈ 8.04 to 257 µM)	3.12 to 100 (≈ 8.04 to 257 µM)	3.12 to 100 (≈ 8.04 to 257 µM)
Cc1ccc2c(c1)cc(C1CC(c3ccc(Cl)cc3)=NN1C(N)=S)c1nnnn12 (stereo unspecified)	3.12 to 100 (≈ 7.41 to 237 µM)	–	3.12 to 100 (≈ 7.41 to 237 µM)	3.12 to 100 (≈ 7.41 to 237 µM)	3.12 to 100 (≈ 7.41 to 237 µM)	3.12 to 100 (≈ 7.41 to 237 µM)
COc1ccc(/C=C2\SC(=O)N(Cc3ccc(-c4ccccc4-c4nnn[nH]4)cc3)C2=O)c(OC)c1	–	7.75 to 35.4 (≈ 15.5 to 70.9 µM)	7.75 to 35.4 (≈ 15.5 to 70.9 µM)	–	–	–
Cc1ccc2cc(/C=C/C(=O)c3cccs3)c3nnnn3c2c1	6.25 to 100 (≈ 19.5 to 312 µM)	–	6.25 to 100 (≈ 19.5 to 312 µM)	6.25 to 100 (≈ 19.5 to 312 µM)	6.25 to 100 (≈ 19.5 to 312 µM)	6.25 to 100 (≈ 19.5 to 312 µM)
Cc1ccc2cc(/C=C/C(=O)c3ccccn3)c3nnnn3c2c1	6.25 to 100 (≈ 19.8 to 317 µM)	–	6.25 to 100 (≈ 19.8 to 317 µM)	6.25 to 100 (≈ 19.8 to 317 µM)	6.25 to 100 (≈ 19.8 to 317 µM)	6.25 to 100 (≈ 19.8 to 317 µM)
Cc1ccc2c(c1)cc(/C=C/C(=O)c1cccs1)c1nnnn12	6.25 to 100 (≈ 19.5 to 312 µM)	–	6.25 to 100 (≈ 19.5 to 312 µM)	6.25 to 100 (≈ 19.5 to 312 µM)	6.25 to 100 (≈ 19.5 to 312 µM)	6.25 to 100 (≈ 19.5 to 312 µM)
Cc1ccc2cc(C3CC(c4ccccc4)=NN3C(N)=S)c3nnnn3c2c1 (stereo unspecified)	3.12 to 100 (≈ 8.07 to 258 µM)	–	3.12 to 100 (≈ 8.07 to 258 µM)	3.12 to 100 (≈ 8.07 to 258 µM)	3.12 to 100 (≈ 8.07 to 258 µM)	3.12 to 100 (≈ 8.07 to 258 µM)
c1ccc(C(c2ccccc2)(c2ccccc2)n2nnnc2-c2ccccc2-c2ccc(CNn3cnnc3)cc2)cc1	–	24.8 (≈ 44.3 µM)	22.4 (≈ 40 µM)	–	–	–
N#Cc1cn2c(NCCc3ccccc3)c(-c3cc4ccccc4n4nnnc34)nc2s1	> 320	–	> 320	> 320	–	–
O=c1c(OCc2nnn[nH]2)c(-c2ccc(F)cc2)oc2cc(Cl)cc(Cl)c12	50 to 400 (≈ 123 to 982 µM)	50 to 400 (≈ 123 to 982 µM)	50 to 400 (≈ 123 to 982 µM)	50 to 400 (≈ 123 to 982 µM)	–	–
Cc1ccc2cc(C3CC(c4cccs4)=NN3C(N)=S)c3nnnn3c2c1 (stereo unspecified)	3.12 to 100 (≈ 7.94 to 254 µM)	–	3.12 to 100 (≈ 7.94 to 254 µM)	3.12 to 100 (≈ 7.94 to 254 µM)	3.12 to 100 (≈ 7.94 to 254 µM)	3.12 to 100 (≈ 7.94 to 254 µM)
Cc1ccc2c(c1)cc(/C=C/C(=O)c1ccccc1)c1nnnn12	6.25 to 100 (≈ 19.9 to 318 µM)	–	6.25 to 100 (≈ 19.9 to 318 µM)	6.25 to 100 (≈ 19.9 to 318 µM)	6.25 to 100 (≈ 19.9 to 318 µM)	6.25 to 100 (≈ 19.9 to 318 µM)
O=C1S/C(=C\c2ccc(Cl)cc2)C(=O)N1Cc1ccc(-c2ccccc2-c2nnn[nH]2)cc1	–	7.75 to 35.4 (≈ 16.4 to 74.7 µM)	7.75 to 35.4 (≈ 16.4 to 74.7 µM)	–	–	–
